From patent US9969710B2, “Heteroaryl compounds as IRAK inhibitors and uses thereof” (Merck Patent GmbH, priority 2015, dated 2018) come the findings set out here.

Broadly, the pIC50 is −log10 of the IC50, conventionally taken in molar units.

Experiment [1] deals with TLR7 induced IL-6 secretion in human mononuclear cells (PBMC's). Briefly: TLR7 induced IL-6 in human PBMC's. As to conditions: TLR7 specific ligand 2 uM overnight, IL-6 AlphaLISA. Type of experiment: cell-based. As for the experimental part: TLR7 Induced IL-6 in Human PBMC's
Human PBMC assay was used as one of the functional assaya to monitor the activity of IRAK1 and IRAK4 small molecule inhibitors on TLR7 induced IL-6 secretion in human mononuclear cells (PBMC's). Human PBMCs were prepared from buffy coats (whole blood enriched with leukocytes and platelets) obtained from healthy volunteers used either fresh or frozen are plated in assay media (RPMI+2% P/S/L-glu+10% HI-FBS) and pre-treated with compounds in DMSO/media (range of concentrations from 25 uM to 0.4 nM) or controls (0.25% DMSO) for 30 minutes at 37° C. in assay media. Following pre-treatment with IRAK1 and IRAK4 inhibitors, PBMC's were stimulated with TLR7 specific ligand (2 uM) overnight (16-18 hrs) at 37° C. After incubation supernatant was transferred to 384 well PE AlphaPlate-384 (6005350) and IL-6 is quantified using Perkin Elmer IL-6 Alpha LISA kit (AL223C). Plates were read on an Envision® plate reader with Alpha Technology®.
For orientation: In Alpha technology, singlet oxygen from a donor bead excites a nearby acceptor bead.

The next experiment concerns the target T1, IRAK4 (Homo sapiens, UniProt Q9NWZ3).
T1 construct: His-TEV-IRAK4 (1-460); His (N); TEV cleavage site (N)
T1 sequence (Q9NWZ3 1-460): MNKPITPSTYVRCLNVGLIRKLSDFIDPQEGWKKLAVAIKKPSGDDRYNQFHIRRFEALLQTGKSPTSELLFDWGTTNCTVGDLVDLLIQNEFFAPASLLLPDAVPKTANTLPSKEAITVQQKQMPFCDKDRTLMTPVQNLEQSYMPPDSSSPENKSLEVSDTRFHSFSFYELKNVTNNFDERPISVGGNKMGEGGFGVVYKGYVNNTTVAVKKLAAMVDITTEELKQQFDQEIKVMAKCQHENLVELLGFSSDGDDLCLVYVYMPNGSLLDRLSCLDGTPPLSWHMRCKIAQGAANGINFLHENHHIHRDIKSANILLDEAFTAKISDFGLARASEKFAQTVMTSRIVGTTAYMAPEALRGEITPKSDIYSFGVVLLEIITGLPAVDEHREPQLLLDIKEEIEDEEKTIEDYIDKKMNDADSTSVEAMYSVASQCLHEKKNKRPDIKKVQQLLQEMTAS
Briefly: IRAK4 enzymatic assay (ADP-Glo luminescence). Type of experiment: biochemical. As to conditions: human recombinant His-TEV-IRAK4 (1-460), STK1-biotin peptide substrate. The procedure: IRAK4 is a human purified recombinant enzyme (His-TEV-IRAK4 (1-460)).
In this assay, IRAK4 hydrolyses ATP, autophosphorylates and phosphorylates a Serine/Threonine generic peptidic substrate (STK: 61ST1BLC from CisBio International). Measurement of IRAK-4 inhibition is performed in 384-well format based on a luminescence assay (ADP-Glo™ Kinase Assay from Promega). Purified human recombinant IRAK4 ([…]) and serial diluted compounds in DMSO (range of concentration from 10 μM to 0.5 nM) or controls (1% DMSO) are incubated for 15 minutes at RT in assay buffer containing 50 mM Hepes pH 7.0, Fatty acid-free BSA 0.1%, Dithiothreitol (DTT) 2 mM, MgCl2 10 mM, EGTA 0.5 mM, Triton X-100 0.01%, MnCl2 5 mM. The kinase reaction is then initiated by the addition of ATP ([…]) and the peptidic substrate STK1-biotin peptide (300 nM). After 2 hours of incubation at RT, the reaction is stopped and the unconsumed ATP depleted by the addition of ADP-Glo™ Reagent according to supplier instructions. After 40 minutes of incubation at RT, the Kinase Detection Reagent is then added to the assay plate according to supplier instructions. After 20 minutes of incubation at RT, the luminescence signal is measured with a plate-reading luminometer (PerkinElmer Envision or equivalent reader).
On the technique in general: In ADP-Glo the light output rises with the ADP produced.

Another experiment deals with T2, IRAK1 (Homo sapiens, UniProt P51617).
T2 construct: His-TEV-IRAK1 (194-712); His (N); TEV cleavage site (N)
The experiment can be described thus: IRAK1 enzymatic assay (ADP-Glo luminescence). The class given is biochemical. As to conditions: human recombinant His-TEV-IRAK1 (194-712), ATP 1 μM; read-out: IRAK 1 IC50. As for the experimental part: IRAK1 is a human purified recombinant enzyme (His-TEV-IRAK1 (194-712))
In this assay, IRAK1 hydrolyses ATP and autophosphorylates. Measurement of IRAK-1 inhibition is performed in 384-well format based on luminescence assay (ADP-Glo™ Kinase Assay from Promega). Purified human recombinant IRAK1 ([…]) and serial diluted compounds in DMSO (range of concentration from 10 μM to 0.5 nM) or controls (1% DMSO) are incubated for 15 minutes at RT in assay buffer containing 50 mM Hepes pH 7.0, Fatty acid-free BSA 0.1%, Dithiothreitol (DTT) 2 mM, MgCl2 10 mM, EGTA 0.5 mM, Triton X-100 0.01%. The kinase reaction is then initiated by the addition of ATP at a concentration of 1 μM. After 2 hours of incubation at RT, the reaction is stopped and the unconsumed ATP depleted by the addition of ADP-Glo™ Reagent according to supplier instructions. After 40 minutes of incubation at RT, the Kinase Detection Reagent is then added to the assay plate according to supplier instructions. After 20 minutes of incubation at RT, the luminescence signal is measured with a luminometer (PerkinElmer Envision or equivalent reader).

pIC50: −log10 of the molar value.

T2 sequence (P51617 194-712): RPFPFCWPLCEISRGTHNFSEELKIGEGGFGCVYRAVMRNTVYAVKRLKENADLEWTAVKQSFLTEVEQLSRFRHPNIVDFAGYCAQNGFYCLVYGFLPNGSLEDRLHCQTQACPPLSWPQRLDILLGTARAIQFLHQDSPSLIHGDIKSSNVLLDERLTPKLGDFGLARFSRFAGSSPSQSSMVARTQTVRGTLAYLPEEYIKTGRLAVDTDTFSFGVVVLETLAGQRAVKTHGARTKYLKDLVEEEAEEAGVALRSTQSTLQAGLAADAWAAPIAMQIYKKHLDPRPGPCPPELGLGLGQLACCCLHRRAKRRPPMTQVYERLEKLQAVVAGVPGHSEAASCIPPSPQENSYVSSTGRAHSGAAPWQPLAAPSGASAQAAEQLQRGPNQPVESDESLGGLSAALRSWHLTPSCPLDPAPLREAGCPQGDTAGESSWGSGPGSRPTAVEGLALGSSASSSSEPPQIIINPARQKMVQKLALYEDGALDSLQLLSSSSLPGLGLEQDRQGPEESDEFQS

Take `CN1CCC[C@@H](c2ccc3c(c2)[nH]/c(=N\C(=O)c2cccc(C(F)F)c2)n3C[C@](C)(F)CO)C1=O` (single isomer, unassigned) [Compound 3b]: the negative-log IC50 (pIC50) in experiment [1] (Homo sapiens, PBMC) was 6.00 to 7.00; on IRAK4, not below 7.00; on IRAK1, 5.00 to 6.00.
Take `CN1CCC[C@H](c2ccc3c(c2)[nH]/c(=N\C(=O)c2cccc(C(F)F)c2)n3C[C@](C)(F)CO)C1=O` (single isomer, unassigned) [Compound 3c]: the negative-log IC50 (pIC50) in experiment [1] (Homo sapiens, PBMC) was not below 7.00; on IRAK4, not below 7.00; at IRAK1 it was 6.00 to 7.00.
For `CN1CCC(c2ccc3c(c2)[nH]/c(=N\C(=O)c2cccc(C(F)(F)F)c2)n3CC(O)CO)C1=O` (single isomer, unassigned) [Compound 20a], the results for the pIC50 (in experiment [1]; on IRAK4; on IRAK1) were 6.00 to 7.00, not below 7.00 and 6.00 to 7.00, respectively.
On to `CN1CCC(c2ccc3c(c2)[nH]/c(=N\C(=O)c2cccc(C(F)(F)F)c2)n3CC(O)CO)C1=O` (single isomer, unassigned) [Compound 20b], for which the figures for the negative-log IC50 (pIC50) (in experiment [1]; at IRAK4; on IRAK1) were 5.00 to 6.00, not below 7.00 and 6.00 to 7.00, respectively.
For `CN1CCC(c2ccc3c(c2)[nH]/c(=N\C(=O)c2cccc(C(F)(F)F)c2)n3CCC(O)CO)C1=O` (single isomer, unassigned) [Compound 21a], the pIC50 in experiment [1] (Homo sapiens, PBMC) was 6.00 to 7.00; at IRAK4, not below 7.00; at IRAK1, 6.00 to 7.00.
With `CN1CCC(c2ccc3c(c2)[nH]/c(=N\C(=O)c2cccc(C(F)(F)F)c2)n3CCC(O)CO)C1=O` (single isomer, unassigned) [Compound 21b], the pIC50 in experiment [1] was 6.00 to 7.00; at IRAK4, not below 7.00; at IRAK1 it was 6.00 to 7.00.
In the case of `CN1CCC(c2ccc3c(c2)[nH]/c(=N\C(=O)c2cccc(C(F)(F)F)c2)n3CCC(O)CO)C1=O` (single isomer, unassigned) [Compound 21c], the negative-log IC50 (pIC50) in experiment [1] was not below 7.00; on IRAK4, not below 7.00; at IRAK1 it was 6.00 to 7.00.
On to `CN1CCC(c2ccc3c(c2)[nH]/c(=N\C(=O)c2cccc(C(F)(F)F)c2)n3CCC(O)CO)C1=O` (single isomer, unassigned) [Compound 21d], for which the negative logarithm of the IC50 (pIC50) in experiment [1] is 6.00 to 7.00; at IRAK4, not below 7.00; at IRAK1, not below 7.00.
For the compound `CN1CCCC(c2ccc3c(c2)[nH]/c(=N\C(=O)c2cccc(C(F)(F)F)c2)n3CCC(O)CO)C1=O` (single isomer, unassigned) [Compound 22a], the pIC50 in experiment [1] is not below 7.00; on IRAK4 it was not below 7.00; at IRAK1, 6.00 to 7.00.
Turning to `CN1CCCC(c2ccc3c(c2)[nH]/c(=N\C(=O)c2cccc(C(F)(F)F)c2)n3CCC(O)CO)C1=O` (single isomer, unassigned) [Compound 22b], the negative logarithm of the IC50 (pIC50) (in experiment [1]; on IRAK4; at IRAK1) was not below 7.00 each time.
In the case of `CN1CCCC(c2ccc3c(c2)[nH]/c(=N\C(=O)c2cccc(C(F)(F)F)c2)n3CCC(O)CO)C1=O` (single isomer, unassigned) [Compound 22c], the negative logarithm of the IC50 (pIC50) was 5.00 to 6.00 in experiment [1], not below 7.00 on IRAK4 and 6.00 to 7.00 on IRAK1.
For `CN1CCCC(c2ccc3c(c2)[nH]/c(=N\C(=O)c2cccc(C(F)(F)F)c2)n3CCC(O)CO)C1=O` (single isomer, unassigned) [Compound 22d], in that order: 6.00 to 7.00, not below 7.00 and 6.00 to 7.00.
`CN1CCC(c2ccc3c(c2)nc(NC(=O)c2cccc(C(F)(F)F)c2)n3CCCO)C1=O` (single isomer, unassigned) [Compound 23a]: the negative-log IC50 (pIC50) in experiment [1] (Homo sapiens, PBMC) is not below 7.00; on IRAK4, not below 7.00; on IRAK1, 6.00 to 7.00.
Regarding `CN1CC(c2ccc3c(c2)nc(NC(=O)c2cccc(C(F)(F)F)c2)n3CCCO)C(C)(C)C1=O` (single isomer, unassigned) [Compound 25a], the pIC50 in experiment [1] (Homo sapiens, PBMC) is 6.00 to 7.00; on IRAK4, not below 7.00; at IRAK1, not below 7.00.
`CN1CC(c2ccc3c(c2)nc(NC(=O)c2cccc(C(F)F)c2)n3CCCO)C(C)(C)C1=O` (single isomer, unassigned) [Compound 27a]: the negative-log IC50 (pIC50) in experiment [1] (Homo sapiens, PBMC) is 6.00 to 7.00; at IRAK4 it was not below 7.00; on IRAK1, not below 7.00.
`CN1CCCC(c2ccc3c(c2)[nH]/c(=N\C(=O)c2cccc(C(F)F)c2)n3C[C@](C)(F)CO)C1=O` (stereo partly drawn) [Compound 2a, (E)-3-(difluoromethyl)-N-(1-((S)-2-fluoro-3-hydroxy-2-methylpropyl)-5-(1-methyl-2-oxopiperidin-3-yl)-1H-benzo[d]imidazol-2(3H)-ylidene)benzamide]: the pIC50 at IRAK4 was not below 7.00; on IRAK1, 6.00 to 7.00.
For `Cn1cccc(-c2ccc3c(c2)[nH]/c(=N\C(=O)c2cccc(C(F)(F)F)c2)n3CCCO)c1=O` [Compound 4, (E)-N-(1-(3-hydroxypropyl)-5-(1-methyl-2-oxo-1,2-dihydropyridin-3-yl)-1H-benzo[d]imidazol-2(3H)-ylidene)-3-(trifluoromethyl)benzamide], the negative logarithm of the IC50 (pIC50) was not below 7.00 on IRAK4 and 6.00 to 7.00 on IRAK1.
As for `Cc1ccn(C)c(=O)c1-c1ccc2c(c1)[nH]/c(=N\C(=O)c1cccc(C(F)(F)F)c1)n2CCCO` [Compound 6, (E)-N-(5-(1,4-dimethyl-2-oxo-1,2-dihydropyridin-3-yl)-1-(3-hydroxypropyl)-1H-benzo[d]imidazol-2(3H)-ylidene)-3-(trifluoromethyl)benzamide], the results for the pIC50 at IRAK4 and on IRAK1 were not below 7.00 and 6.00 to 7.00, respectively.
Taken in the same sequence, the figures for `O=C(/N=c1\[nH]c2cc(C3CCCCC3=O)ccc2n1CCCO)c1cccc(C(F)(F)F)c1` (stereo not drawn) [Compound 8, (E)-N-(1-(3-hydroxypropyl)-5-(2-oxocyclohexyl)-1H-benzo[d]imidazol-2(3H)-ylidene)-3-(trifluoromethyl)benzamide] were not below 7.00 and not below 7.00.
`O=C1C=C(c2ccc3c(c2)[nH]/c(=N\C(=O)c2cccc(C(F)(F)F)c2)n3CCCO)CO1` [Compound 9, (E)-N-(1-(3-hydroxypropyl)-5-(5-oxo-2,5-dihydrofuran-3-yl)-1H-benzo[d]imidazol-2(3H)-ylidene)-3-(trifluoromethyl)benzamide]: the results for the pIC50 at IRAK4 and at IRAK1 were not below 7.00 and 6.00 to 7.00, respectively.
On to `O=C(/N=c1\[nH]c2cc(C3(O)COC3)ccc2n1CCCO)c1cccc(C(F)(F)F)c1` [Compound 11, (E)-N-(5-(3-hydroxyoxetan-3-yl)-1-(3-hydroxypropyl)-1H-benzo[d]imidazol-2(3H)-ylidene)-3-(trifluoromethyl)benzamide], for which the pIC50 at IRAK4 is not below 7.00; on IRAK1, 5.00 to 6.00.
